According to patent US20120196895A1, “NOVEL FORMS OF EPERISONE” (Bionevia Pharmaceuticals, Inc., priority 2009, published 2012):
Structures can show the parent of a compound that is named as a salt.

Assay: Solubility determinations of crystalline forms of racemic eperisone in water
Type: physicochemical
Conditions: for Solubility: HPLC-grade water, slurry on rotating wheel 46.5 hours at ambient temperature (about 19° C.), filtrate dried and weighed; for Relative solubility among the forms: ranking of the Table 10 solubilities in water
Procedure: The solubilities of the crystalline forms of racemic eperisone were determined as follows. Each experiment was conducted in a one-dram vial by adding weighed amounts of solid salt in portions to a weighed amount of HPLC-grade water until a slurry was obtained. In the case of the mesylate salt, a slurry was not obtained; solid addition was stopped while a solution was still present. Each vial was capped and placed on a rotating wheel for 46.5 hours at ambient temperature. Each vial was removed from the wheel. The ambient temperature at the time of removal was about 19° C. The contents of each vial were vacuum filtered through Whatman Grade 1 filter paper. Solids adhering to the inside of the vial were not recovered. Each filtrate was weighed, dried under diaphragm pump pressure over phosphorus pentoxide, and the resulting solid residue was weighed. Each filter cake was allowed to dry in the air overnight and was weighed.

SMILES | Solubility [mg/mL] | Relative solubility among the forms (listed as racemic eperisone fumarate) | Relative solubility among the forms (listed as racemic eperisone mesylate)
CCc1ccc(C(=O)C(C)CN2CCCCC2)cc1 (racemic) [Fumarate, (2RS)-1-(4-ethylphenyl)-2-methyl-3-piperidin-1-yl-propan-1-one] | 16.8 | least soluble | 
CCc1ccc(C(=O)C(C)CN2CCCCC2)cc1 (racemic) [Hydrochloride, (2RS)-1-(4-ethylphenyl)-2-methyl-3-piperidin-1-yl-propan-1-one, reference compound] | 210.7 |  | 
CCc1ccc(C(=O)C(C)CN2CCCCC2)cc1 (racemic) [Maleate, (2RS)-1-(4-ethylphenyl)-2-methyl-3-piperidin-1-yl-propan-1-one] | 20.7 |  | 

Continued, values first:

Solubility [mg/mL] | Relative solubility among the forms (listed as racemic eperisone fumarate) | Relative solubility among the forms (listed as racemic eperisone mesylate) | SMILES
>392.2 |  | most soluble | CCc1ccc(C(=O)C(C)CN2CCCCC2)cc1 (racemic) [Mesylate, (2RS)-1-(4-ethylphenyl)-2-methyl-3-piperidin-1-yl-propan-1-one]
114.7 |  |  | CCc1ccc(C(=O)C(C)CN2CCCCC2)cc1 (racemic) [Succinate, (2RS)-1-(4-ethylphenyl)-2-methyl-3-piperidin-1-yl-propan-1-one]
